{"source": "patent US20250114367A1", "about": "“METHOD OF TREATING HAIR LOSS DISORDERS” (Sun Pharmaceutical Industries, Inc., priority 2023, published 2025)", "key": {"[1]": {"assay": "Renal impairment study: PK after a single 12 mg oral dose of CTP-543", "assay_type": "in vivo, human", "conditions": "for Tmax / AUC(0-t) / AUC(0-inf) / Cmax / Vd/F / half-life: human, plasma, po, 12 mg; for Tmax / AUC(0-t) / AUC(0-inf) / Cmax / Vd/F / half-life / CL/F (geometric mean) / Clast (geometric mean): single 12 mg oral dose of CTP-543, outlier excluded; for AUC(0-t): read-out: AUC0-Tlast (geometric mean); for AUC(0-inf): read-out: AUC0-inf (geometric mean); for Cmax: read-out: Cmax (geometric mean); for Vd/F: read-out: Vz/F (geometric mean); for half-life: read-out: terminal elimination half-life (geometric mean) (converted)", "from_the_text": "The study enrolled 8 subjects in the normal renal function cohort, and 8 subjects in the moderate impaired renal function cohort.\nThe primary endpoint of this study was single dose PK exposure parameters: Cmax, AUC(0-Tlast), and AUC(0-∞).\nThe secondary endpoints of this study were: • Adverse Events, clinical laboratory findings, physical examinations, ECGs, and vital signs. • Other PK parameters, such as, but not limited to: Tmax, λz, t1/2, CL/F, and Vz/F.\n(§1) All subjects had samples collected for PK.\nPK parameters were determined using non-compartmental analysis (NCA) methods based on individual plasma concentration-time data for all PK analytes."}, "plasma protein": {"test_system": "plasma protein", "assay": "Plasma protein binding of CTP-543 at 2 hours post-dose (renal impairment study)", "assay_type": "in vitro ADME, human", "conditions": "moderate renal impairment vs matched controls with normal renal function", "from_the_text": "as §1"}, "[2]": {"test_system": "adult subjects with moderate to severe AA", "assay": "Phase III trial: Hospital Anxiety and Depression Scale (HADS)", "assay_type": "in vivo, human", "conditions": "for HADS anxiety scale, LS mean change from baseline / HADS anxiety scale, LS mean treatment group difference from placebo / HADS depression scale, LS mean change from baseline / HADS depression scale, LS mean treatment group difference from placebo: Week 24", "from_the_text": "The Hospital Anxiety and Depression Scale (HADS) is used to measure anxiety and depression in a general medical population of subjects. HADS comprises of 14 items (7 items each for anxiety and depression), with a score ranging between 0 and 21 for the anxiety and depression subscales. Scores between 8 and 10 indicate a moderate presence of symptoms of anxiety and depression, whereas a score greater than 11 indicates a significant number of symptoms of anxiety and depression that likely correspond with a clinical diagnosis. The total HADS score may be regarded as a global measure of psychological distress (Roberts et al, 2001; Johnston et al, 2000). A negative change in a subject's HADS score from a starting timepoint to an end point during treatment, e.g. from baseline to Week 24 of treatment, indicates an improvement in symptoms of anxiety and depression. The HADS questionnaire was completed by subjects at baseline and Week 24. The term “baseline” as used herein refers to the HADS score (or HADS-A or HADS-D score) determined before administration of Compound (I).\nApproximately 440 adult male and female subjects 18 to 65 years of age, inclusive, with moderate to severe AA participated in the study. Subjects with definitive diagnosis of AA, and at least 50% hair loss, as defined by a SALT score ≥50, who met all of the inclusion criteria and none of the exclusion criteria participated in the study.\nThe Screening Period lasted up to 28 days prior to initiation of study drug. […] Randomization was stratified by scalp hair loss into 1 of the following 2 categories: 1) partial scalp hair loss (SALT ≥50 and <95), 2) complete or near complete scalp hair loss (SALT ≥95).\nAdditional secondary efficacy endpoints included the following: • Relative change in SALT scores from baseline at Weeks 4, 8, 12, 16, 20, and 24. • Percentage of responders (defined as “much improved” or “very much improved”) using the Clinical Global Impression of Improvement (CGI-I) at Weeks 12, 16, 20, and 24. • Percentage of responders (defined as “much improved” or “very much improved”) using the Patient Global Impression of Improvement (PGI-I) at Weeks 12, 16, 20, and 24. • Change from baseline in the Clinical Global Impression of Severity (CGI-S) at Weeks 12, 16, 20, and 24. • Change from baseline in the Patient Global Impression of Severity (PGI-S) at Weeks 12, 16, 20, and 24. • Change from baseline on the Brigham Eyebrow Tool for Alopecia (BETA) score at Weeks 12 and 24. • Change from baseline on the Brigham Eyelash Tool for Alopecia (BELA) score at Weeks 12 and 24. • Percentage of subjects achieving at least a 75% relative reduction in SALT score from baseline at Weeks 12 and 24. • Percentage of subjects achieving at least a 90% relative reduction in SALT score from baseline at Weeks 12 and 24. • Percentage of responders (defined as “satisfied” or “very satisfied”) on the SPRO scale at Weeks 12, 16, and 20. • Change from baseline in the SPRO scale at Weeks 12, 16, 20, and 24. • Percentage of subjects achieving a ≥2-point change from baseline in the SPRO scale at Weeks 12, 16, 20, and 24. • Change from baseline on the individual items of the Hair Quality Patient Reported Outcome (QPRO) scale at Weeks 12, 16, 20, and 24. • Change from baseline in the depression scale of the Hospital Anxiety and Depression Scale (HADS) at Week 24. • Change from baseline in the anxiety scale of the HADS at Week 24. • Percentage of subjects achieving an absolute SALT score of ≤20 at Week 4. • Percentage of subjects achieving an absolute SALT score of ≤10 at Week 24\nChanges from baseline to Week 24 in the depression scale of subjects who were randomized to treatment with deuruxolitinib 8 mg twice daily (BID), deuruxolitinib 12 mg BID, or placebo for 24 weeks were measured. Subjects completed the HADS 14-item questionnaire with 7 items for anxiety (HADS-A) and 7 items for depression (HADS-D)."}, "subjects with AA": {"test_system": "subjects with AA", "assay": "SALT change at week 8, 8 mg BID versus 16 mg once daily", "assay_type": "in vivo, human", "procedure": "A decrease in SALT score indicates increased hair growth. Decreases in the LS mean SALT scores were initially observed at Week 4. […] At week 8, the LS mean change from baseline SALT score was higher in subjects treated with deuruxolitinib 8 mg BID (8.6%) than in subjects treated with 16 mg once daily (QD) (2.7%)."}, "[3]": {"conditions": "compared to healthy control subjects"}, "[4]": {"conditions": "moderate renal impairment N = 7"}}, "note": "Read-outs that look alike come from different tables or passages of the source.", "data": [{"smiles": "[2H]C1([2H])C([C@@H](CC#N)n2cc(-c3ncnc4[nH]ccc34)cn2)C([2H])([2H])C([2H])([2H])C1([2H])[2H]", "note": "[CTP-543, (R)-3-(4-(7H-pyrrolo[2,3-d]pyrimidin-4-yl)-1H-pyrazol-1-yl)-3-(cyclopentyl-2,2,3,3,4,4,5,5-d8) propanenitrile]", "values": [{"measurement": "effect of moderate renal impairment on Cmax", "setting": "[1]; [3]", "result": "without altering Cmax"}, {"measurement": "increase of plasma AUC by moderate renal impairment", "setting": "[1]; [3]", "result": "approximately 24%"}, {"measurement": "Tmax", "setting": "[1]; [4]", "result": 0.5, "unit": "h"}, {"measurement": "AUC(0-t)", "setting": "[1]; [4]", "result": 1040, "unit": "ng·h/mL"}, {"measurement": "AUC(0-inf)", "setting": "[1]; [4]", "result": 1050, "unit": "ng·h/mL"}, {"measurement": "Cmax", "setting": "[1]; [4]", "result": 207, "unit": "ng/mL"}, {"measurement": "Vd/F", "setting": "[1]; [4]", "result": 72.1, "unit": "L"}, {"measurement": "half-life", "setting": "[1]; [4]", "result": 4.36, "unit": "h"}, {"measurement": "Tmax", "setting": "[1]; normal renal function N = 8", "result": 0.71, "unit": "h"}, {"measurement": "AUC(0-t)", "setting": "[1]; normal renal function N = 8", "result": 836, "unit": "ng·h/mL"}, {"measurement": "AUC(0-inf)", "setting": "[1]; normal renal function N = 8", "result": 843, "unit": "ng·h/mL"}, {"measurement": "Cmax", "setting": "[1]; normal renal function N = 8", "result": 199, "unit": "ng/mL"}, {"measurement": "Vd/F", "setting": "[1]; normal renal function N = 8", "result": 85.6, "unit": "L"}, {"measurement": "half-life", "setting": "[1]; normal renal function N = 8", "result": 4.17, "unit": "h"}, {"measurement": "CL/F (geometric mean)", "setting": "[1]; [4]", "result": 11.3, "unit": "L/h"}, {"measurement": "Clast (geometric mean)", "setting": "[1]; [4]", "result": 0.977, "unit": "ng/mL"}, {"measurement": "CL/F (geometric mean)", "setting": "[1]; normal renal function N = 8", "result": 14.2, "unit": "L/h"}, {"measurement": "Clast (geometric mean)", "setting": "[1]; normal renal function N = 8", "result": 0.698, "unit": "ng/mL"}, {"measurement": "differences in plasma protein binding between cohorts", "setting": "plasma protein", "result": "no meaningful differences"}, {"measurement": "HADS anxiety scale, LS mean change from baseline", "setting": "[2]; 8 mg BID", "result": "−1.1"}, {"measurement": "HADS anxiety scale, LS mean treatment group difference from placebo", "setting": "[2]; 8 mg BID", "result": 0.5}, {"measurement": "HADS depression scale, LS mean change from baseline", "setting": "[2]; 8 mg BID", "result": "−1.2"}, {"measurement": "HADS depression scale, LS mean treatment group difference from placebo", "setting": "[2]; 8 mg BID", "result": 0.8}, {"measurement": "HADS anxiety scale, LS mean change from baseline", "setting": "[2]; 12 mg BID", "result": "−0.9"}, {"measurement": "HADS anxiety scale, LS mean treatment group difference from placebo", "setting": "[2]; 12 mg BID", "result": 0.2}, {"measurement": "HADS depression scale, LS mean change from baseline", "setting": "[2]; 12 mg BID", "result": "−1.5"}, {"measurement": "HADS depression scale, LS mean treatment group difference from placebo", "setting": "[2]; 12 mg BID", "result": 1.1}, {"measurement": "subjects achieving a ≥3-point improvement in the HADS-D score", "setting": "[2]; baseline to Week 24, 8 mg BID", "result": 26.2, "unit": "%"}, {"measurement": "subjects achieving a ≥4-point improvement in the HADS-A score", "setting": "[2]; baseline to Week 24, 8 mg BID", "result": 18.9, "unit": "%"}, {"measurement": "LS mean change from baseline SALT score", "setting": "subjects with AA; 8 mg BID", "result": 8.6, "unit": "%"}, {"measurement": "LS mean change from baseline SALT score", "setting": "subjects with AA; 16 mg once daily (QD)", "result": 2.7, "unit": "%"}]}]}
